In US7410971B2, “1,2-di(cyclic)substituted benzene compounds” (Eisai R&D Management Co., Ltd., priority 2003, dated 2008):

Tests used:
[1] = system: colon-infiltrating neutrophils (myeloperoxidase enzyme activity); assay: Oxazolone-induced colon neutrophil infiltration model; type: in vivo, Balb/c mice; conditions: Mus musculus, po, 30 mg/kg orally 30 minutes prior to intrarectal oxazolone, colon myeloperoxidase activity 4 hours after, vs oxazolone control group, read-out: Inhibitory rate (%)
Protocol: Evaluation of Compounds in Oxazolone-Induced Colon Neutrophil Infiltration Model
<Sensitization with Oxazolone>
Five- to six-week-old male Balb/c mice (Charles River Japan) were shaven at the abdomen to an approximately 2 cm square area. A 100% ethanol solution containing 3% 4-ethoxymethylene-2-phenyl-2-oxazolin-5-one (hereinafter referred to as “oxazolone”; Sigma) was applied at 150 μl onto the abdomen of each mouse.
<Preparation of Emulsion Containing Oxazolone>
Distilled water (Otsuka Pharmaceutical) was added in an equivalent volume to 100% peanut oil (Kanto Kagaku) containing 1% oxazolone, and the components were vigorously mixed with a glass syringe (Top Co.), to prepare an emulsion containing 0.5% oxazolone.
<Induction with Oxazolone>
The mice were fasted on the 3rd day after oxazolone sensitization, and were injected with 100 μl of the emulsion containing 0.5% oxazolone prepared in the way described above intrarectally at a site approximately 3 cm from the anus under ether anesthesia on the 4th day.
<Colon-Infiltrating Neutrophil Assay>
Each compound was suspended or dissolved in an aqueous solution containing 0.5% methyl cellulose (Wako), and orally administered at 30 mg/kg 30 minutes prior to the intrarectal injection of oxazolone emulsion. Four hours after the intrarectal injection of oxazolone, mice were sacrificed by cervical dislocation, and colons were extirpated, dissected in the longitudinal direction, washed with physiological saline, and transferred to ice-cooled plastic centrifugation tubes. After adding 1 ml of 50 mM potassium phosphate buffer (hereinafter abbreviated as KPB) (pH 6.0) to the tube, and the tissue were homogenized with PHYSCOTRON (Microtec Nition Co., Ltd.), 2 ml of 50 mM KPB (pH 6.0) was added and the mixture was centrifuged at 3000 rpm, 4° C. for 10 minutes and the supernatant was removed. To the resultant precipitate was added 1 ml of 50 mM KPB (pH 6.0) containing 0.5% hexadecyltrimethyl-ammonium bromide (Sigma), and freeze-thawed 3 to 5 times using liquid nitrogen and hot water, centrifuged at 3000 rpm, 4° C. for 10 minutes to yield a supernatant. The myeloperoxidase enzyme activity in the supernatant was assayed in the following manner. Specifically, to 10 μl of the obtained supernatant was added 200 μl of 50 mM KPB (pH6.0) containing 0.017% o-dianisidine (Sigma) and 0.0005% hydrogen peroxide (Wako), incubated at 37° C., and the change in absorbance at 450 nm was continuously measured for 1 minute using an EL340 Automated Microplate Reader (BIO-TEK) in kinetic mode. The units were the rate of change in absorbance per minute (mO.D./min.). With regard to the effect of each compound, the inhibitory rate (%) with respect to the oxazolone control group, i.e. the oxazolone-injected/compound-free group, was shown in the table 3.

DSS-induced colitis = DSS-induced colitis model; type: in vivo, Balb/c mice; conditions: 30 mg/kg orally once a day for 5-7 successive days; 1-3% DSS in water for 5-7 days
Text: Evaluation of Compounds in DSS-Induced Colitis Model
A 1-3% solution of dextran sulfate sodium (hereinafter abbreviated as DSS; ICN) in purified water (Otsuka Pharmaceutical) was fed freely to 6- to 7-week-old male Balb/c mice (Charles River Japan) for 5-7 days to induce colitis. Disease Activity Index (hereinafter abbreviated as DAI) scored based on fecal hardness, blood content in feces and body weight change, the number of neutrophils infiltrating the colon and the length of the colon were used as indexes to evaluate compounds. Each compound was suspended or dissolved in an aqueous solution containing 0.5% methyl cellulose (Wako), and orally administered at 30 mg/kg once a day, for 5-7 successive days.

SMILES	inhibition in vivo at 30 mg/kg [1]	improvement in comparison with the DSS control group (DAI, number of neutrophils infiltrating the colon, length of the colon) (DSS-induced colitis)
COC1CCN(c2ccc(N3CCN(CC4CC4)CC3)c(C3=CCC(C(C)(C)C)CC3)c2)CC1.Cl (racemic) [Example 20, 1-[2-(4-t-Butylcyclohex-1-enyl)-4-(4-methoxypiperidin-1-yl)phenyl]-4-cyclopropylmethylpiperazine hydrochloride]	38%	particularly good improvement
CCCN1CCN(c2ccc(N3CCOCC3)cc2C2=CC(C)(C)CC(C)(C)C2)CC1.Cl [Example 28, 4-[4-(4-Propylpiperazin-1-yl)-3-(3,3,5,5-tetramethylcyclohex-1-enyl)phenyl]morpholine hydrochloride]	48%	particularly good improvement
CCCCN1CCN(c2ccc(N3CCC(OC)CC3)cc2C2CC(C)(C)CC(C)(C)C2)CC1.Cl [Example 32, 1-Butyl-4-[4-(4-methoxypiperidin-1-yl)-2-(3,3,5,5-tetramethylcyclohexyl)phenyl]piperazine hydrochloride]	51%	particularly good improvement
CC(C)CN1CCN(c2ccccc2C2=CCC3(CC2)CC3)CC1.Cl [Example 34, 1-Isobutyl-4-(2-spiro[2.5]oct-5-en-6-ylphenyl)piperazine hydrochloride]		particularly good improvement
CCCN1CCN(c2ccccc2C2CC(C)(C)CC(C)(C)C2)CC1.Cl [Example 31, 1-Propyl-4-[2-(3,3,5,5-tetramethylcyclohexyl)phenyl]piperazine hydrochloride]	38%	particularly good improvement
CCC(=O)CN1CCN(c2ccc(N3CCOCC3)cc2C2=CCC(CC)(CC)CC2)CC1.Cl [Example 30, 1-{4-[2-(4,4-Diethylcyclohex-1-enyl)-4-morpholin-4-ylphenyl]piperazin-1-yl}butan-2-one hydrochloride]	23%	particularly good improvement
CCC(=O)CN1CCN(c2ccccc2C2CCC(C)(C)CC2)CC1.Cl [Example 17, 1-{4-[2-(4,4-Dimethylcyclohexyl)phenyl]piperazin-1-yl}butan-2-one hydrochloride]	30%	particularly good improvement
CC1(C)C=C(c2ccccc2N2CCN(CC3CCOCC3)CC2)CC(C)(C)C1.Cl [Example 22, 1-(Tetrahydropyran-4-ylmethyl)-4-[2-(3,3,5,5-tetramethylcyclohex-1-enyl)phenyl]piperazine hydrochloride]	28%	particularly good improvement
CC1(C)CC(c2ccccc2N2CCN(CC3CC3)CC2)CC(C)(C)C1.Cl [Example 9, 1-Cyclopropylmethyl-4-[2-(3,3,5,5-tetramethylcyclohexyl)phenyl]piperazine hydrochloride]	35%	
COCCN1CCN(c2ccccc2C2CCC(C(C)(C)C)CC2)CC1.Cl (stereo not shown) [Example 19, 1-[2-(4-t-Butylcyclohexyl)phenyl]-4-(2-methoxyethyl)piperazine hydrochloride]		particularly good improvement
CCCCCN1CCN(c2cc(OC)ccc2C2CCC(C)(C)CC2)CC1.Cl [Example 1, 1-[2-(4,4-Dimethylcyclohexyl)-5-methoxyphenyl]-4-pentylpiperazine hydrochloride]	45%	particularly good improvement
